Laboratory results published in patent US9169254B2, “Spiroimidazolone derivative” (Chugai Seiyaku Kabushiki Kaisha, priority 2009, dated 2015).

target: T1, human PTH1 receptor (Homo sapiens, UniProt Q03431); assay: In vitro cAMP signal activity in HKRK-B7 cells (LLC-PK1 cells overexpressing the human PTH1 receptor); assay type: cell-based; conditions: HKRK-B7 cells; compound at 1×10^−3 M; cAMP produced as percentage of that produced by hPTH(1-34) at 100 nM
T1 sequence (Q03431 27-593): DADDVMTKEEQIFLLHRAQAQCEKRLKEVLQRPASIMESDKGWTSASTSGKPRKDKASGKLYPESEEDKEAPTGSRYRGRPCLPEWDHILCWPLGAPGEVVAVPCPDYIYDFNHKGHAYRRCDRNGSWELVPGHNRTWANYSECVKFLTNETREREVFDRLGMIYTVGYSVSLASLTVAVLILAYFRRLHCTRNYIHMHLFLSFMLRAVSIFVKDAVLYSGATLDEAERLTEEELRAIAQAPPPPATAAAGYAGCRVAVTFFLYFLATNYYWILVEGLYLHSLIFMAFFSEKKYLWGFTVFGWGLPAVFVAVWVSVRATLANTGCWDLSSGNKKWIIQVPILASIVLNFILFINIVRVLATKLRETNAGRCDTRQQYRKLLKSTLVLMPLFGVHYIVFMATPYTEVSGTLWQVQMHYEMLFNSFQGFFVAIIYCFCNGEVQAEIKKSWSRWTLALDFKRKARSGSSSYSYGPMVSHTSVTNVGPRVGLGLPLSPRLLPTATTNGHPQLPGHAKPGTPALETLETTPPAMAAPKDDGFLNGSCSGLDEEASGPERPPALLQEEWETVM

cAMP production activity (%)	SMILES
138	Cc1cc(N(C)C(N)=O)cc(C)c1/C=C/S(=O)(=O)N1CCC2(CC1)N=C(c1cccc(SC(F)(F)F)c1)NC2=O [Compound 1305, 1-(3,5-dimethyl-4-{(E)-2-[4-oxo-2-(3-trifluoromethylsulfanyl-phenyl)-1,3,8-triaza-spiro[4.5]dec-1-ene-8-sulfonyl]-vinyl}-phenyl)-1-methyl-urea]
159	Cc1cc(N(C)C(N)=O)cc(C)c1CCS(=O)(=O)N1CCC2(CC1)N=C(c1cccc(SC(F)(F)F)c1)NC2=O [Compound 1306, 1-(3,5-dimethyl-4-{2-[4-oxo-2-(3-trifluoromethylsulfanyl-phenyl)-1,3,8-triaza-spiro[4.5]dec-1-ene-8-sulfonyl]-ethyl}-phenyl)-1-methyl-urea]
116	Cc1cc(N(C)C(N)=O)cc(C)c1/C=C/S(=O)(=O)N1CCC2(CC1)N=C(CCCCCCCCCCCO)NC2=O [Compound 1307, 1-(4-{(E)-2-[2-(11-hydroxy-undecyl)-4-oxo-1,3,8-triaza-spiro[4.5]dec-1-ene-8-sulfonyl]-vinyl}-3,5-dimethyl-phenyl)-1-methyl-urea]
102	Cc1cc(N(C)C(N)=O)cc(C)c1/C=C/S(=O)(=O)N1CCC2(CC1)N=C(CCCCCCCCCCCNC(=O)OC(C)(C)C)NC2=O [Compound 1308, [11-(8-{(E)-2-[2,6-dimethyl-4-(1-methyl-ureido)-phenyl]-ethenesulfonyl}-4-oxo-1,3,8-triaza-spiro[4.5]dec-1-en-2-yl)-undecyl]-carbamic acid tert-butyl ester]
109	Cc1cc(N(C)C(N)=O)cc(C)c1/C=C/S(=O)(=O)N1CCC2(CC1)N=C(CCCCCCCCCO)NC2=O [Compound 1309, 1-(4-{(E)-2-[2-(9-hydroxy-nonyl)-4-oxo-1,3,8-triaza-spiro[4.5]dec-1-ene-8-sulfonyl]-vinyl}-3,5-dimethyl-phenyl)-1-methyl-urea]
104	CC(C)=C1CCC(C2=NC3(CCN(S(=O)(=O)CCc4c(C)cc(N(C)C(N)=O)cc4C)CC3)C(=O)N2)CC1 (stereo not drawn) [Compound 1310, 1-(4-{2-[2-(4-isopropylidene-cyclohexyl)-4-oxo-1,3,8-triaza-spiro[4.5]dec-1-ene-8-sulfonyl]-ethyl}-3,5-dimethyl-phenyl)-1-methyl-urea]
79	Cc1cc(N(C)C(N)=O)cc(C)c1CCS(=O)(=O)N1CCC2(CC1)N=C(C(C)(F)F)NC2=O [Compound 1311, 1-(4-{2-[2-(1,1-difluoro-ethyl)-4-oxo-1,3,8-triaza-spiro[4.5]dec-1-ene-8-sulfonyl]-ethyl}-3,5-dimethyl-phenyl)-1-methyl-urea]
105	[2H]C([2H])([2H])N(C(N)=O)c1cc(C)c(/C=C/S(=O)(=O)N2CCC3(CC2)N=C(c2ccc(F)c(C(F)(F)F)c2)NC3=O)c(C)c1 [Compound 1312, 1-(4-{(E)-2-[2-(4-fluoro-3-trifluoromethyl-phenyl)-4-oxo-1,3,8-triaza-spiro[4.5]dec-1-ene-8-sulfonyl]-vinyl}-3,5-dimethyl-phenyl)-1-[1,1,1-^2H3]methyl-urea]
87	Cc1cc(CNC(N)=O)cc(C)c1CCS(=O)(=O)N1CCC2(CC1)N=C(C1CCC(CCC(F)(F)F)CC1)NC2=O (stereo not drawn) [Compound 1313, [3,5-Dimethyl-4-(2-{4-oxo-2-[4-(3,3,3-trifluoro-propyl)-cyclohexyl]-1,3,8-triaza-spiro[4.5]dec-1-ene-8-sulfonyl}-ethyl)-benzyl]-urea]
78	Cc1cc(CNC(N)=O)cc(C)c1CCS(=O)(=O)N1CCC2(CC1)N=C(C1CCC(C)CC1)NC2=O (stereo not drawn) [Compound 1314, (3,5-dimethyl-4-{2-[2-(4-methyl-cyclohexyl)-4-oxo-1,3,8-triaza-spiro[4.5]dec-1-ene-8-sulfonyl]-ethyl}-benzyl)-urea]
76	Cc1cc(N(C)C(N)=O)cc(C)c1/C=C/S(=O)(=O)N1CCC2(CC1)N=C(CCCCCCCCCCCN)NC2=O [Compound 1315, 1-(4-{(E)-2-[2-(11-Amino-undecyl)-4-oxo-1,3,8-triaza-spiro[4.5]dec-1-ene-8-sulfonyl]-vinyl}-3,5-dimethyl-phenyl)-1-methyl-urea]
2.9	CCC[S+]([O-])CCCCCC1=NC2(CCN(S(=O)(=O)/C=C/c3c(C)cc(N(C)C(N)=O)cc3C)CC2)C(=O)N1 (stereo not drawn) [Compound 1316, 1-[3,5-Dimethyl-4-((E)-2-{4-oxo-2-[5-(propane-1-sulfinyl)-pentyl]-1,3,8-triaza-spiro[4.5]dec-1-ene-8-sulfonyl}-vinyl)-phenyl]-1-methyl-urea]
3.4	CC[S+]([O-])CCCCCCC1=NC2(CCN(S(=O)(=O)CCc3c(C)cc(N(C)C(N)=O)cc3C)CC2)C(=O)N1 (stereo not drawn) [Compound 1317, 1-(4-{2-[2-(6-ethanesulfinyl-hexyl)-4-oxo-1,3,8-triaza-spiro[4.5]dec-1-ene-8-sulfonyl]-ethyl}-3,5-dimethyl-phenyl)-1-methyl-urea]
19	CCCS(=O)(=O)CCCCCC1=NC2(CCN(S(=O)(=O)/C=C/c3c(C)cc(N(C)C(N)=O)cc3C)CC2)C(=O)N1 [Compound 1318, 1-[3,5-Dimethyl-4-((E)-2-{4-oxo-2-[5-(propane-1-sulfonyl)-pentyl]-1,3,8-triaza-spiro[4.5]dec-1-ene-8-sulfonyl}-vinyl)-phenyl]-1-methyl-urea]
5.8	Cc1cc(N(C)C(N)=O)cc(C)c1/C=C/S(=O)(=O)N1CCC2(CC1)N=C(CCCCCCCS(C)(=O)=O)NC2=O [Compound 1319, 1-(4-{(E)-2-[2-(7-methanesulfonyl-heptyl)-4-oxo-1,3,8-triaza-spiro[4.5]dec-1-ene-8-sulfonyl]-vinyl}-3,5-dimethyl-phenyl)-1-methyl-urea]
10	CCS(=O)(=O)CCCCCCC1=NC2(CCN(S(=O)(=O)CCc3c(C)cc(N(C)C(N)=O)cc3C)CC2)C(=O)N1 [Compound 1320, 1-(4-{2-[2-(6-ethanesulfonyl-hexyl)-4-oxo-1,3,8-triaza-spiro[4.5]dec-1-ene-8-sulfonyl]-ethyl}-3,5-dimethyl-phenyl)-1-methyl-urea]
63	Cc1cc(N(C)C(N)=O)cc(C)c1/C=C/S(=O)(=O)N1CCC2(CC1)N=C(CCCCCCCCC(F)F)NC2=O [Compound 1321, 1-(4-{(E)-2-[2-(9,9-Difluoro-nonyl)-4-oxo-1,3,8-triaza-spiro[4.5]dec-1-ene-8-sulfonyl]-vinyl}-3,5-dimethyl-phenyl)-1-methyl-urea]
80	Cc1cc(N(C)C(N)=O)cc(C)c1CCS(=O)(=O)N1CCC2(CC1)N=C(CCCCCCCCCO)NC2=O [Compound 1322, 1-(4-{2-[2-(9-Hydroxy-nonyl)-4-oxo-1,3,8-triaza-spiro[4.5]dec-1-ene-8-sulfonyl]-ethyl}-3,5-dimethyl-phenyl)-1-methyl-urea]
78	Cc1cc(N(C)C(N)=O)cc(C)c1CCS(=O)(=O)N1CCC2(CC1)N=C(CCCCCCCCC(F)F)NC2=O [Compound 1323, 1-(4-{2-[2-(9,9-Difluoro-nonyl)-4-oxo-1,3,8-triaza-spiro[4.5]dec-1-ene-8-sulfonyl]-ethyl}-3,5-dimethyl-phenyl)-1-methyl-urea]
1.0	Cc1cc(N(C)C(N)=O)cc(C)c1CCS(=O)(=O)N1CCC2(CC1)N=C(CCCCCCCCCN)NC2=O [Compound 1324, 1-(4-{2-[2-(9-Amino-nonyl)-4-oxo-1,3,8-triaza-spiro[4.5]dec-1-ene-8-sulfonyl]-ethyl}-3,5-dimethyl-phenyl)-1-methyl-urea]
113	Cc1cc(N(C)C(N)=O)cc(C)c1/C=C/S(=O)(=O)N1CCC2(CC1)N=C(CCCCCCCCCF)NC2=O [Compound 1325, 1-(4-{(E)-2-[2-(9-Fluoro-nonyl)-4-oxo-1,3,8-triaza-spiro[4.5]dec-1-ene-8-sulfonyl]-vinyl}-3,5-dimethyl-phenyl)-1-methyl-urea]
84	Cc1cc(N(C)C(N)=O)cc(C)c1/C=C\S(=O)(=O)N1CCC2(CC1)N=C(CCCCCCCCCF)NC2=O [Compound 1326, 1-(4-{(Z)-2-[2-(9-fluoro-nonyl)-4-oxo-1,3,8-triaza-spiro[4.5]dec-1-ene-8-sulfonyl]-vinyl}-3,5-dimethyl-phenyl)-1-methyl-urea]
92	Cc1cc(N(C)C(N)=O)cc(C)c1CCS(=O)(=O)N1CCC2(CC1)N=C(CCCCCCCCCF)NC2=O [Compound 1327, 1-(4-{2-[2-(9-Fluoro-nonyl)-4-oxo-1,3,8-triaza-spiro[4.5]dec-1-ene-8-sulfonyl]-ethyl}-3,5-dimethyl-phenyl)-1-methyl-urea]
93	Cc1cc(OC[C@H](O)CO)cc(C)c1CCS(=O)(=O)N1CCC2(CC1)N=C(c1cccc(OCCCC(F)(F)C(F)(F)F)c1)NC2=O [Compound 1328, 8-{2-[4-((R)-2,3-Dihydroxy-propoxy)-2,6-dimethyl-phenyl]-ethanesulfonyl}-2-[3-(4,4,5,5,5-pentafluoro-pentyloxy)-phenyl]-1,3,8-triaza-spiro[4.5]dec-1-en-4-one]
